For assay [1], the system named is NCI-H358 cell line. Description: In vitro cell proliferation assay (CCK-8) in NCI-H358 cell line. Format: cell-based. As to conditions: Homo sapiens, 72 hours; for inhibition at 3 µM: TC1: Test Concentration of 3 uM; for inhibition at 10 µM: TC2: Test Concentration of 10 uM. How it is done: (§1) Growth inhibition assays is to be carried out using 10% FBS supplemented media. Cells are to be seeded at a desired concentration of 1,500-6,000 cells/well in a 96-well plate. Test compounds at a concentration range from 1 to 30 uM will be added after 24 hours. Growth will be assessed using the CCK-8 kit for measuring reduction at 0 h (prior to the addition of the test compound) and 72 hours after the addition of test compound. Absorbance read on a BIO-RAD iMark Microplate or any equivalent microplate reader at a wavelength of 450 nm. Data was analysed and percent inhibition due to the test compound compared to the control is calculated accordingly.

Assay [2] relates to MIAPACA-2 cell line. Description: In vitro cell proliferation assay (CCK-8) in MIAPACA-2 cell line. Format: cell-based. As to conditions: Homo sapiens, MIA PaCa-2, 72 hours; for inhibition at 3 µM: TC1: Test Concentration of 3 uM; for inhibition at 10 µM: TC2: Test Concentration of 10 uM. How it is done: as §1

Each structure is given as a SMILES string.

For orientation: inhibition means the drop in the measured response relative to a control, in per cent. Read a high inhibition as strong suppression. Regarding `C=CC(=O)N1CCN(c2nc(OC[C@@H]3CCCN3C)c(C#N)c3c2CCN(c2cccc4cccc(Cl)c24)C3)CC1CC#N` (single isomer, unassigned) [Ex 24], in assay [1], the inhibition at 3 µM lay within 75 to 100% and the inhibition at 10 µM was in the range of 75 to 100%. Moreover, in assay [2], the inhibition at 3 µM fell in the range of 75 to 100% and the inhibition at 10 µM lay in the range of 75 to 100%. For the molecule `C=CC(=O)N1CCN(c2nc(N3CCN(S(C)(=O)=O)CC3)c(C#N)c3c2CCN(c2cccc4ccccc24)C3)CC1` [Ex 53, 1-(4-acryloylpiperazin-1-yl)-3-(4-(methylsulfonyl)piperazin-1-yl)-6-(naphthalen-1-yl)-5,6,7,8-tetrahydro-2,6-naphthyridine-4-carbonitrile], the inhibition at 10 µM in assay [1] and in assay [2] was 75 to 100% throughout.

As to `C=CC(=O)N1CCN(c2nc(N3CCN(CC)CC3)c(C#N)c3c2CCN(c2cccc4ccccc24)C3)CC1` [Ex 54, 1-(4-acryloylpiperazin-1-yl)-3-(4-ethylpiperazin-1-yl)-6-(naphthalen-1-yl)-5,6,7,8-tetrahydro-2,6-naphthyridine-4-carbonitrile], the inhibition at 10 µM in assay [1] and in assay [2] was 75 to 100% throughout. `C=C(F)C(=O)N1CCN(c2nc(OC[C@@H]3CCCN3C)c(C#N)c3c2CCN(c2cccc4cccc(Cl)c24)C3)CC1CC#N` (stereo partly drawn) [Ex 26, 6-(8-chloronaphthalen-1-yl)-1-(3-(cyanomethyl)-4-(2-fluoroacryloyl)piperazin-1-yl)-3-(((S)-1-methylpyrrolidin-2-yl)methoxy)-5,6,7,8-tetrahydro-2,6-naphthyridine-4-carbonitrile]: in assay [1], the inhibition at 3 µM is 25 to 50% and the inhibition at 10 µM is 75 to 100%. Take `C=CC(=O)N1CCN(c2nc(N3CCOCC3)c(C#N)c3c2CCN(c2cccc4ccccc24)C3)CC1` [Ex 50, 1-(4-acryloylpiperazin-1-yl)-3-morpholino-6-(naphthalen-1-yl)-5,6,7,8-tetrahydro-2,6-naphthyridine-4-carbonitrile]: the inhibition at 10 µM in assay [1] fell in the range of 75 to 100%. Consider `C=C(F)C(=O)N1CCN(c2nc(OC[C@@H]3CCCN3C)c(C#N)c3c2CCN(c2cccc4cccc(Cl)c24)C3)C[C@H]1CC#N` [Ex 28, 6-(8-chloronaphthalen-1-yl)-1-((R)-3-(cyanomethyl)-4-(2-fluoroacryloyl)piperazin-1-yl)-3-(((S)-1-methylpyrrolidin-2-yl)methoxy)-5,6,7,8-tetrahydro-2,6-naphthyridine-4-carbonitrile], for which, in assay [1], the inhibition at 3 µM is 50 to 75% and the inhibition at 10 µM lay in the range of 75 to 100%. In assay [2], the inhibition at 3 µM lay in the range of 75 to 100% and the inhibition at 10 µM lay in the range of 75 to 100%. In the case of `C=CC(=O)N1CCN(c2nc(N3CC(C)OC(C)C3)c(C#N)c3c2CCN(c2cccc4ccccc24)C3)CC1` (stereo not shown) [Ex 52, 1-(4-acryloylpiperazin-1-yl)-3-(2,6-dimethylmorpholino)-6-(naphthalen-1-yl)-5,6,7,8-tetrahydro-2,6-naphthyridine-4-carbonitrile], the inhibition at 10 µM in assay [1] and in assay [2] was 75 to 100% in each case. In assay [1], `C=CC(=O)N1CCN(c2nc(N3CCN(C(=O)CC)CC3)c(C#N)c3c2CCN(c2cccc4ccccc24)C3)CC1` [Ex 48, 1-(4-acryloylpiperazin-1-yl)-6-(naphthalen-1-yl)-3-(4-propionylpiperazin-1-yl)-5,6,7,8-tetrahydro-2,6-naphthyridine-4-carbonitrile] showed an inhibition at 10 µM of 75 to 100%.

For the molecule `C=CC(=O)Oc1nc(N2CCN(C(=O)C=C)CC2)c2c(c1C#N)CN(Cc1ccccc1)CC2` [Ex 33, 1-(4-acryloylpiperazin-1-yl)-6-benzyl-4-cyano-5,6,7,8-tetrahydro-2,6-naphthyridin-3-yl acrylate], in assay [1], the inhibition at 10 µM is at most 25%. The same measure, in the same setting: as for `C=CC(=O)N1CCN(c2nc(N3CCN(C)CC3)c(C#N)c3c2CCN(C(=O)c2cccc4ccccc24)C3)CC1CC#N` (stereo not shown) [Ex 37, 6-(1-naphthoyl)-1-(4-acryloyl-3-(cyanomethyl)piperazin-1-yl)-3-(4-methylpiperazin-1-yl)-5,6,7,8-tetrahydro-2,6-naphthyridine-4-carbonitrile], the figure is 75 to 100%; as for `C=CC(=O)N1CCN(c2nc(-c3ccnc(F)c3)c(C#N)c3c2CCN(Cc2ccccc2)C3)CC1` [Ex 43, 1-(4-acryloylpiperazin-1-yl)-6-benzyl-3-(2-fluoropyridin-4-yl)-5,6,7,8-tetrahydro-2,6-naphthyridine-4-carbonitrile], 25 to 50%. Molecule `C=CC(=O)N1CCN(c2nc(O)c(C#N)c3c2CCN(Cc2ccccc2)C3)CC1` [Ex 40, 1-(4-acryloylpiperazin-1-yl)-6-benzyl-3-hydroxy-5,6,7,8-tetrahydro-2,6-naphthyridine-4-carbonitrile] returned an inhibition at 10 µM in assay [1] of at most 25%.

`C=CC(=O)N1CCN(c2nc(N3CCN(C(=O)CC)CC3)c3c(c2C#N)CN(c2cccc4ccccc24)CC3)CC1` [Ex 49, 3-(4-acryloylpiperazin-1-yl)-6-(naphthalen-1-yl)-1-(4-propionylpiperazin-1-yl)-5,6,7,8-tetrahydro-2,6-naphthyridine-4-carbonitrile] came in with an inhibition at 10 µM in assay [1] of 75 to 100%.

In assay [1], `C=CC(=O)N1CCN(c2nc(N3CCN(C)CC3)c(C#N)c3c2CCN(Cc2ccccc2)C3)CC1CC#N` (stereo not shown) [Ex 36, 1-(4-acryloyl-3-(cyanomethyl)piperazin-1-yl)-6-benzyl-3-(4-methylpiperazin-1-yl)-5,6,7,8-tetrahydro-2,6-naphthyridine-4-carbonitrile] gave an inhibition at 10 µM of 25 to 50%. Same read-out and setting: the value for `C=CC(=O)N1CCN(c2nc(N3CCN(C)CC3)c(C#N)c3c2CCN(Cc2ccccc2)C3)[C@H](C)C1` [Ex 39, (R)-1-(4-acryloyl-2-methylpiperazin-1-yl)-6-benzyl-3-(4-methylpiperazin-1-yl)-5,6,7,8-tetrahydro-2,6-naphthyridine-4-carbonitrile] was 25 to 50%; that for `C=CC(=O)N1CCN(c2nc(N3CCN(C(C)=O)CC3)c(C#N)c3c2CCN(c2cccc4ccccc24)C3)CC1` [Ex 51, 3-(4-acetylpiperazin-1-yl)-1-(4-acryloylpiperazin-1-yl)-6-(naphthalen-1-yl)-5,6,7,8-tetrahydro-2,6-naphthyridine-4-carbonitrile] was 50 to 75%.

For `C=C(F)C(=O)N1CCN(c2nc(OC[C@@H]3CCCN3C)c(C#N)c3c2CCN(c2cccc4cccc(Cl)c24)C3)C[C@@H]1CC#N` [Ex 27, 6-(8-chloronaphthalen-1-yl)-1-((S)-3-(cyanomethyl)-4-(2-fluoroacryloyl)piperazin-1-yl)-3-(((S)-1-methylpyrrolidin-2-yl)methoxy)-5,6,7,8-tetrahydro-2,6-naphthyridine-4-carbonitrile], in assay [1], the inhibition at 3 µM was in the range of 50 to 75% and the inhibition at 10 µM was in the range of 75 to 100%. In the case of `C=CC(=O)N1CCN(c2nc(N3CCN(C)CC3)c(C#N)c3c2CCN(Cc2ccccc2)C3)[C@@H](C)C1` [Ex 38, (S)-1-(4-acryloyl-2-methylpiperazin-1-yl)-6-benzyl-3-(4-methylpiperazin-1-yl)-5,6,7,8-tetrahydro-2,6-naphthyridine-4-carbonitrile], the inhibition at 10 µM in assay [1] is at most 25%. For `C=CC(=O)N1CCN(c2nc(N3CCN(C(=O)C=C)CC3)c3c(c2C#N)CN(c2cccc4sccc24)CC3)CC1` [Ex 47, 1,3-bis(4-acryloylpiperazin-1-yl)-6-(benzo[b]thiophen-4-yl)-5,6,7,8-tetrahydro-2,6-naphthyridine-4-carbonitrile], in assay [1], the inhibition at 10 µM fell in the range of 75 to 100%. On the same count and under the same terms, as for `C=CC(=O)N1CCN(c2nc(N3CCN(C)CC3)c(C#N)c3c2CCN(Cc2ccccc2)C3)CC1` [Ex 35, 1-(4-acryloylpiperazin-1-yl)-6-benzyl-3-(4-methylpiperazin-1-yl)-5,6,7,8-tetrahydro-2,6-naphthyridine-4-carbonitrile], the figure is 25 to 50%; as for `C=CC(=O)N1CCN(c2nc(N3CCN(C)CC3)c(C#N)c3c2CCN(c2cccc4ccccc24)C3)CC1` [Ex 41, 1-(4-acryloylpiperazin-1-yl)-3-(4-methylpiperazin-1-yl)-6-(naphthalen-1-yl)-5,6,7,8-tetrahydro-2,6-naphthyridine-4-carbonitrile], 25 to 50%. In assay [1], `C=CC(=O)N1CCN(c2nc(N3CCCCC3)c(C#N)c3c2CCN(c2cccc4ccccc24)C3)CC1` [Ex 44, 1-(4-acryloylpiperazin-1-yl)-6-(naphthalen-1-yl)-3-(piperidin-1-yl)-5,6,7,8-tetrahydro-2,6-naphthyridine-4-carbonitrile] came in with an inhibition at 10 µM of at most 25%. Take `C=CC(=O)N1CCN(c2nc(OC[C@@H]3CCCN3C)c(C#N)c3c2CCN(c2cccc4ccccc24)C3)CC1` [Ex 55, (S)-1-(4-acryloylpiperazin-1-yl)-3-((1-methylpyrrolidin-2-yl)methoxy)-6-(naphthalen-1-yl)-5,6,7,8-tetrahydro-2,6-naphthyridine-4-carbonitrile]: the inhibition at 10 µM in assay [1] and in assay [2] was 75 to 100% in each case.

In assay [1], `C=CC(=O)N1CCN(c2nc(OC[C@@H]3CCCN3C)c(C#N)c3c2CCN(c2cccc4cccc(Cl)c24)C3)CC1CC#N` (mixture of isomers) [Ex 23, 1-(4-acryloyl-3-(cyanomethyl)piperazin-1-yl)-6-(8-chloronaphthalen-1-yl)-3-(((S)-1-methylpyrrolidin-2-yl)methoxy)-5,6,7,8-tetrahydro-2,6-naphthyridine-4-carbonitrile] came in with an inhibition at 3 µM of 75 to 100% and an inhibition at 10 µM of 75 to 100%. In assay [2], this molecule gave an inhibition at 3 µM of 75 to 100% and an inhibition at 10 µM of 75 to 100%.

`C=CC(=O)N1CCN(c2nc(N3CCOCC3)c(C#N)c3c2CCN(Cc2ccccc2)C3)CC1` [Ex 34, 1-(4-acryloylpiperazin-1-yl)-6-benzyl-3-morpholino-5,6,7,8-tetrahydro-2,6-naphthyridine-4-carbonitrile] displayed an inhibition at 10 µM in assay [1] of 25 to 50%.
